Common to all, as to test: growth of human tumour cells (NCI), 48 h
Experiment [1] has as its system SK-OV-3 ovarian.
Experiment [2] has as its system SF-295 CNS.
Experiment [3] relates to IGROV1 ovarian.
For experiment [4], the system named is LOX IMVI melanoma.
Experiment [5] relates to 786-0 renal.
Experiment [6] relates to SF-539 CNS.
For experiment [7], the system named is MOLT-4 leukemia.
Experiment [8] concerns UO-31 renal.
For experiment [9], the system named is OVCAR-3 ovarian.
In experiment [10] the test system is A549 NSCLC.

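Dose response: 5 concentrations. Exposure: 48 h. Format: 96-well plates. Endpoint: linear interpolation; highest concentration if not reached. Here, GI50 denotes the concentration required for 50% inhibition of growth. TGI denotes the concentration required for complete inhibition of growth.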

For the compound `CCn1c(SC(C)C(=O)c2c(C)n(C)n(-c3ccccc3)c2=O)nc2ccccc2c1=O` (configuration not stated), the TGI in experiment [1], in experiment [2], in experiment [3], in experiment [4], in experiment [5] and in experiment [6] was over 100 µM in each case. In addition, the TGI in experiment [7], in experiment [8], in [9] and in [10] was over 100 µM in each case.

Consider `NC(=O)c1ccccc1NC(=O)C(=O)Cc1nc2ccccc2[nH]c1=O`, for which the TGI in [1], in [2], in [3], in experiment [4], in experiment [5] and in [6] was over 100 µM each time. In addition, the TGI in experiment [7], in [8], in [9] and in [10] was over 100 µM throughout.

For `CCOC(=O)c1sc2nc(SC)nc3c2c1NCN3c1ccc(F)c(F)c1`, the TGI in experiment [1] is 43.5 µM; in experiment [2], 65.9 µM; in experiment [3], over 100 µM; in experiment [4] it was over 60.1 µM; in experiment [5], 12.4 µM; in [6] it was 11.7 µM. In addition, the TGI in [7] was over 100 µM; in [8], over 63.3 µM; in [9], 19.5 µM; in experiment [10], 25.3 µM.

As to `CCN(CC)c1ccc(N=Nc2ccc([N+](=O)[O-])cc2OC(=O)/C=C/c2ccccc2)c(OC(=O)/C=C/c2ccccc2)c1`, the TGI was over 100 µM in experiment [1]; over 100 µM in [2]; over 100 µM in [3]; over 100 µM in experiment [4]; over 100 µM in [5]; over 27.9 µM in experiment [6]. The TGI in [7], in experiment [8], in [9] and in experiment [10] was over 100 µM throughout.

As for `CCOC(=O)c1c(Br)c(-c2ccc(OC)cc2)c(Br)n1C`, the TGI in experiment [1] is over 100 µM; in experiment [2], 56.1 µM; in experiment [3] it was over 100 µM; in experiment [4], 41.6 µM; in experiment [5] it was 73.4 µM; in experiment [6], 70.9 µM. The TGI is over 100 µM in [7], 89.2 µM in experiment [8], 67.7 µM in experiment [9] and 82.3 µM in experiment [10]. For the same compound, the GI50 in experiment [4] was 17.5 µM; in experiment [7], 17.8 µM.

For `CCOC(=O)c1nc2ccccc2nc1Oc1ccc(C(=O)OC)cc1`, the TGI in experiment [1], in experiment [2], in [3], in [4], in [5] and in experiment [6] was over 100 µM each time. Also, the TGI in experiment [7], in experiment [8], in [9] and in [10] was over 100 µM each time.

In the case of `CC1(C)C(CCO)CC1n1cc(I)c(=O)[nH]c1=O` (configuration not stated), the TGI in experiment [1], in [2], in experiment [4], in experiment [5], in [6] and in experiment [7] was over 100 µM each time. The TGI in experiment [8], in experiment [9] and in experiment [10] was over 100 µM in each case.

Take `CC(=O)OC(Cc1ccc2ccccc2n1)(C(F)(F)F)C(F)(F)F`: the TGI in experiment [1] was determined as 33 µM; in [2], 10.9 µM; in experiment [3], 6.02 µM; in experiment [4] it was 0.409 µM; in experiment [5], 6.37 µM; in experiment [6] it was 7.71 µM. In addition, the TGI in [7] was found to be 16 µM; in experiment [8], 7.12 µM; in [9] it was 1.99 µM; in experiment [10], 44.3 µM.

As to `COC(OC)C1OCC(n2cc(F)c(=O)[nH]c2=O)C1O` (configuration not stated), the TGI in [1], in [2], in [3], in [4], in [5] and in experiment [6] was over 100 µM in each case. The TGI in experiment [7], in experiment [8], in experiment [9] and in [10] was over 100 µM in each case.

For `COc1cc2cc(C(=O)N3CC(CCl)c4c3cc(NC(=O)OCc3ccc([N+](=O)[O-])cc3)c3ccccc43)[nH]c2c(OC)c1OC` (configuration not stated), the TGI in experiment [1] was over 100 µM; in [2], over 56.2 µM; in experiment [3], over 90 µM; in experiment [4] it was over 100 µM; in experiment [5], over 39.3 µM; in experiment [6] it was over 100 µM. Also, the TGI is over 100 µM in experiment [7], 0.516 µM in experiment [8], over 100 µM in experiment [9] and over 100 µM in experiment [10].

Take `O=c1[nH]c(=O)n(C2CC(O)C(CO)O2)cc1NN=NCCCc1ccccc1` (configuration not stated): the TGI in experiment [1], in [2], in experiment [3], in experiment [4], in experiment [5] and in [6] was over 100 µM throughout. The TGI in experiment [7], in [9] and in [10] was over 100 µM throughout.

Consider `COc1ccc(NC(=O)CC(=O)n2nc(C)c(N=Nc3cccc(C)c3)c2C)cc1`, for which the TGI in experiment [1] was 78.7 µM; in experiment [2], over 100 µM; in [4], over 100 µM; in experiment [5] it was over 100 µM; in [6], over 100 µM; in experiment [7] it was over 100 µM. For the same compound, the TGI in experiment [8], in [9] and in [10] was over 100 µM throughout.

Consider `CCOC(=O)c1cc(I)c(-c2cc(C)no2)n1C`, for which the TGI was over 100 µM in experiment [1]; over 100 µM in experiment [2]; over 100 µM in [4]; over 100 µM in experiment [5]; over 100 µM in [6]; 71.6 µM in experiment [7]. Further, the TGI in [8], in experiment [9] and in experiment [10] was over 100 µM throughout.

In the case of `O=C1Nc2ccccc2Cn2c1cc1oc(-c3ccccc3)cc12`, the TGI in experiment [1] is 69.9 µM; in [2], 63.3 µM; in experiment [3] it was over 100 µM; in experiment [4] it was over 100 µM; in experiment [5], 45.4 µM; in experiment [6], 74.3 µM. Also, the TGI in [7], in experiment [9] and in experiment [10] was over 100 µM in each case.

The record behind these values is PubChem BioAssay (NCI).
